According to paper PMC3429931 (Biochemical Journal, 2012):

Tests used:
[1] = biological target: T1, Dat (dopamine N-acetyltransferase), wild-type / full-length (Drosophila melanogaster, UniProt Q94521); test: isothermal titration calorimetry; format: binding
[2] = biological target: Dat (dopamine N-acetyltransferase), wild-type / full-length (Drosophila melanogaster, UniProt Q94521, S221A); test: Ellman's reagent; conditions: read-out: Tryptamine Km; 30 °C, 50 mM sodium phosphate pH 7.2, 500 mM NaCl, 2 mM EDTA, 2 mM AcCoA
[3] = biological target: Dat (dopamine N-acetyltransferase), wild-type / full-length (Drosophila melanogaster, UniProt Q94521, S217A); test: Ellman's reagent; conditions: read-out: Tryptamine Km; 30 °C, 50 mM sodium phosphate pH 7.2, 500 mM NaCl, 2 mM EDTA, 2 mM AcCoA
[4] = biological target: Dat (dopamine N-acetyltransferase), wild-type / full-length (Drosophila melanogaster, UniProt Q94521, E82A); test: Ellman's reagent; conditions: read-out: Tryptamine Km; 30 °C, 50 mM sodium phosphate pH 7.2, 500 mM NaCl, 2 mM EDTA, 2 mM AcCoA
[5] = biological target: T1, Dat (dopamine N-acetyltransferase), wild-type / full-length; test: Ellman's reagent; conditions: read-out: Tryptamine Km; 30 °C, 50 mM sodium phosphate pH 7.2, 500 mM NaCl, 2 mM EDTA, 2 mM AcCoA
[6] = biological target: Dat (dopamine N-acetyltransferase), wild-type / full-length (Drosophila melanogaster, UniProt Q94521, Y220A); test: Ellman's reagent; conditions: read-out: Tryptamine Km; 30 °C, 50 mM sodium phosphate pH 7.2, 500 mM NaCl, 2 mM EDTA, 2 mM AcCoA
[7] = biological target: Dat (dopamine N-acetyltransferase), wild-type / full-length (Drosophila melanogaster, UniProt Q94521, Y220F); test: Ellman's reagent; conditions: read-out: Tryptamine Km; 30 °C, 50 mM sodium phosphate pH 7.2, 500 mM NaCl, 2 mM EDTA, 2 mM AcCoA
Dat (dopamine N-acetyltransferase), wild-type / full-length (Drosophila melanogaster, UniProt Q94521, Y220F), sequence (Q94521 36-275 Y220F): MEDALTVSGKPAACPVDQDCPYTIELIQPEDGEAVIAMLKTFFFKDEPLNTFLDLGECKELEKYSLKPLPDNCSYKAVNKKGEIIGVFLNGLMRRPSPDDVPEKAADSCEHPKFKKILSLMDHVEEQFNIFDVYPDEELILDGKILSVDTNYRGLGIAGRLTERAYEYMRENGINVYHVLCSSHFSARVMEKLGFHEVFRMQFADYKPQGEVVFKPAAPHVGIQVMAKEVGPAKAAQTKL

T1 sequence (Q94521 36-275): as the sequence (Q94521 36-275 Y220F) above, with F185Y counted along it
Dat (dopamine N-acetyltransferase), wild-type / full-length (Drosophila melanogaster, UniProt Q94521, S217A), sequence (Q94521 36-275 S217A): as the sequence (Q94521 36-275 Y220F) above, with S182A, F185Y counted along it
Dat (dopamine N-acetyltransferase), wild-type / full-length (Drosophila melanogaster, UniProt Q94521, S221A), sequence (Q94521 36-275 S221A): as the sequence (Q94521 36-275 Y220F) above, with F185Y, S186A counted along it
Dat (dopamine N-acetyltransferase), wild-type / full-length (Drosophila melanogaster, UniProt Q94521, Y220A), sequence (Q94521 36-275 Y220A): as the sequence (Q94521 36-275 Y220F) above, with F185A counted along it
Dat (dopamine N-acetyltransferase), wild-type / full-length (Drosophila melanogaster, UniProt Q94521, E82A), sequence (Q94521 36-275 E82A): as the sequence (Q94521 36-275 Y220F) above, with E47A, F185Y counted along it

In the case of NCCc1ccc(O)c(O)c1 [dopamine], the Kd [1] is reported as 25.9 ± 2.5 µM.

With NCCc1c[nH]c2ccccc12 [tryptamine] the Km [2] was 550 ± 70 µM, the Km [3] was 650 ± 90 µM and the Km [4] was 1200 ± 100 µM. For the same compound, the Km [5] was 470 ± 90 µM, the Km [6] was 490 ± 70 µM and the Km [7] was 470 ± 80 µM.

For CC(=O)SCCNC(=O)CCNC(=O)[C@H](O)C(C)(C)COP(=O)(O)OP(=O)(O)OC[C@H]1O[C@@H](n2cnc3c(N)ncnc32)[C@H](O)[C@@H]1OP(=O)(O)O [AcCoA], the Kd [1] was 5.43 ± 1.09 µM.

In the case of NCCc1c[nH]c2ccc(O)cc12 [serotonin], the Kd [1] is reported as 223 µM.
